The experiment has as its system Pgam5^-/- CD8^+ T cells. Description: In vitro stimulation of PGAM5-/- CD8+ cells in presence of UA. The experiment is classed as cell-based, PGAM5^-/- mice. The protocol: (FIG. 5H) Immunofluorescence of PGAM5 (green) in CD3+ cells after in vitro stimulation with aCD3/aCD28 stimulation beads for six hours. Cells were stained with Mitotracker Red to display mitochondrial colocalisation in the DMSO control as opposed to cytosolic release in the UA sample (m, mitochondrial co-localization; c, cytoplasmic localization) Scale=5 um. (FIG. 5I) In vitro stimulation of PGAM5^-/- CD8+ cells: Percentage of TSCM after 48 h of stimulation with aCD3/aCD28 stimulation beads in the presence of UA. All data depicts mean ± SD, n=4 per group. Statistics shown here depict unpaired, two-sided t-test and Mann-Whitney test (I; (DMSO vs UA25; DMSO vs UA50). *p < 0.05; n.s. not significant. (FIG. 5J) Percentage of CD95+ er 48 h of stimulation with aCD3/aCD28 stimulation beads in the presence of UA. (FIG. 5K) CD95+er 48 h of stimulation with aCD3/aCD28 stimulation beads in the presence of UA.
(FIG. 5L) UA induces PGC-1α expression in stimulated CD8+ cells. PGC-1α MFI at 48 h upon stimulation, as assessed by intracellular staining, is shown (n=3). One of two independent experiments are shown. Data are mean ± SD, statistical analysis was performed by two-sided t-test (p**<0.01). (FIG. 5M) Mitochondrial content of TIL CD8+ cells harvested from APTK-carrying mice, fed UA or control diet as depicted in FIG. 1J. Assessed by Mitotracker Red staining. Data are mean ± SD, *p < 0.05 by two-sided t-test. (FIG. 5N) Mitophagy and subsequent PGAM5 release drive PGC-1α upregulation. PGC-1α expression of CD8+ cells derived from Pink1^-/- KO mice upon 48 h stimulation in vitro in the presence of UA or DMSO control (n=4). Data are mean ± SD, statistical analysis was performed by two-sided t-test. Depicts one of two independent experiments. (FIG. 5O) Mitophagy and subsequent PGAM5 release drive PGC-1 α upregulation. PGC-1α expression of CD8+ cells derived from PGAM5^-^/- mice upon 48 h stimulation in vitro in the presence of UA or DMSO control (n=4). Data are mean ± SD, statistical analysis was performed by two-sided t-test. […] Cells were co-treated with DMSO, UA and an inhibitor of PGC-1α (PGC-1αi) as indicated (n=4). One of two independent experiments are shown. Data are mean ± SD, statistical analysis was performed by two-sided t-test (p**<0.01; ***p <0.001; n.s. not significant).(FIG. 5Q) Urolithin A induces TSCM in human CD8+ cells: Schematic overview. PBMC were isolated from healthy donors, prior to T cell purification and in vitro stimulation via aCD3/aCD28 stimulation beads at the presence of UA or DMSO control. (FIG. 5R) Quantification of human TSCM (n=4). Representative data of one out of five donors with the same result are shown. (FIG. 5S) Quantification of TMRM^loCD8+ human cells 48 h after activation in the presence of UA or DMSO control (n=4). (FIG. 5T) TCF1 expression in human CD8 cells as assessed by flow cytometry (n=4). All data are mean ± SD; statistical analysis was performed by two-sided t-test (*p < 0.05; p**<0.01; p****0.0001).
(FIG. 8B) qPCR analysis of selected Wnt target genes 24 h after stimulation (n=4). Data are mean ± SEM, statistical analysis was performed by two-sided t-test (* p<0.05, ** p<0.01, *** p<0.001). (FIG. 8C) CD8+ cells from PGAM5^-/- mice display an adequate mitophagy response upon UA treatment: Flow cytometry analysis of lysosome formation after six hours of in vitro stimulation via aCD3/aCD28 stimulation beads (n=4). (FIG. 8D) CD8+ cells from PGAM5^-/- mice display an adequate mitophagy response upon UA treatment: Mitotracker Red signal after 24 h in PGAM5^-/- CD8+ stimulated in vitro at the presence of UA or vehicle control. Congruent histograms are shown. Data are mean ± SD, statistical analysis was performed by two-sided t-test (* p<0.05, ** p<0.01, *** p<0.001). (FIG. 8E) Cytosolic fractionation Western blot of Pink1^-/- CD3+ cells 6 h after stimulation with plate-bound aCD3/aC28 antibodies in the presence of Urolithin A or DMSO control. […]

In the case of `O=c1oc2cc(O)ccc2c2ccc(O)cc12` [Urolithin A], under “24 h”, the “mitochondrial content (Mitotracker Red)” value was “reduced mitochondrial content”. Further, under “48 h”, the PGC-1α expression result was “failed to enhance”, the TCF1 result was “failed to upregulate”, the “UA-dependent expansion of CD44-CD62L+Sca1hi TSCM cells” value was “blocked the UA-dependent expansion” and the “memory marker CD95” value is given as “failed to upregulate”. The lysosome formation entry (six hours) is reported as “still enhanced lysosome formation”.
